Experimental data from ChEMBL document CHEMBL4831514, “Novel betulin dicarboxylic acid ester derivatives as potent antiviral agents: Design, synthesis, biological evaluation, structure-activity relationship and in-silico study” (Eur J Med Chem, 2021).
pEC50: −log10 of the molar value. Active and inactive are the calls of the source. No cut-off for these calls is given here.

Key:
Enterovirus E [1] = assay: Antiviral activity against Enterovirus E LCR-4 infected in A549 cells assessed as reduction in virus titer preincubated for 24 hrs followed by viral infection and measured after 72 hrs by microscopic analysis; format: functional, organism-based; settings: LCR-4, A549
Human adenovirus 5 [2] = assay: Antiviral activity against Human adenovirus 5 Adenoid 75 infected in A549 cells assessed as inhibition of viral adsorption at early stage of replication treated for 1 hr during viral infection followed by replacement with fresh medium and measured after 72 hrs by MTT assay; format: functional, organism-based
Human alphaherpesvirus 1 [3] = assay: Antiviral activity against Human herpesvirus 1 MacIntyre infected in A549 cells assessed as reduction in virus titer preincubated for 24 hrs followed by viral infection and measured after 72 hrs by microscopic analysis; format: functional, organism-based
[4] = test system: Vesicular stomatitis virus; assay: Antiviral activity against Vesicular stomatitis virus Indiana infected in A549 cells assessed as reduction in virus titer preincubated for 24 hrs followed by viral infection and measured after 72 hrs by microscopic analysis; format: functional, organism-based
[5] = Selectivity index, ratio of CC50 for cytotoxicity against human A549 cells to EC50 for antiviral activity against Enterovirus E LCR-4 infected in A549 cells; format: toxicity, cell-based; settings: read-out: Selectivity Index
Enterovirus E [6] = assay: Antiviral activity against Enterovirus E LCR-4 infected in A549 cells assessed as inhibition of viral adsorption at early stage of replication treated for 1 hr during viral infection followed by replacement with fresh medium and measured after 72 hrs by MTT assay; format: functional, organism-based
A549 = assay: (§1) Cytotoxicity against human A549 cells assessed as reduction in cell viability incubated for 48 hrs by MTT assay; format: cell-based; settings: a549, 48 h
[7] = as §1; format: cell-based; settings: A549 cells
Enterovirus E [8] = assay: Potency index, ratio of […] EC50 to test compound EC50 for antiviral activity against Enterovirus E LCR-4 infected in A549 cells assessed as reduction in virus titer preincubated for 24 hrs followed by viral infection and measured after 72 hrs by microscopic analysis; format: functional; settings: time 96 hrs
MDCK = assay: Cytotoxicity against MDCK cells assessed as reduction in cell viability incubated for 72 hrs by MTT assay; format: cell-based, Canis lupus familiaris; settings: dog, mdck, 72 h
Human adenovirus 5 [9] = assay: Antiviral activity against Human adenovirus 5 Adenoid 75 infected in A549 cells assessed as reduction in virus titer preincubated for 24 hrs followed by viral infection and measured after 72 hrs by microscopic analysis; format: functional, organism-based
Human alphaherpesvirus 1 [10] = assay: Antiviral activity against Human herpesvirus-1 MacIntyre infected in A549 cells assessed as inhibition of viral adsorption at early stage of replication treated for 1 hr during viral infection followed by replacement with fresh medium and measured after 48 hrs by MTT assay; format: functional, organism-based
[11] = (§2) Selectivity index, ratio of CC50 for cytotoxicity against human A549 cells to EC50 for antiviral activity against Enterovirus E LCR-4 infected in A549 cells assessed as reduction in virus titer treated 1 hr post viral infection followed by replacement with fresh medium with compounds and measured after 72 hrs by MTT assay; format: toxicity, cell-based; settings: read-out: Selectivity Index
Enterovirus E [12] = assay: Antiviral activity against Enterovirus E LCR-4 infected in A549 cells assessed as reduction in virus titer treated 1 hr post viral infection followed by replacement with fresh medium with compounds and measured after 72 hrs by MTT assay; format: functional, organism-based; settings: LCR-4, A549
Enterovirus E [13] = assay: as §2, with “Potency” for “Selectivity”, “ribavirin EC50” for “CC50 for cytotoxicity against human A549 cells”, “to test compound” for “to”; format: functional

Structure (SMILES)	pEC50 (Enterovirus E [1])	Activity (Human adenovirus 5 [2])	Activity (Human alphaherpesvirus 1 [3])	Activity [4]	selectivity ratio [5]	Activity (Enterovirus E [6])	CC20 (A549)	CC50 at 48 h [7]	Ratio EC50 (Enterovirus E [8])	CC20 (MDCK)	Activity (Human adenovirus 5 [9])	Activity (Human alphaherpesvirus 1 [10])	selectivity ratio at 72 h [11]	pEC50 (Enterovirus E [12])	Ratio EC50 (Enterovirus E [13])
C=C(C)[C@@H]1CC[C@]2(COC(=O)c3cccc(C(=O)N4CCCCC4)c3)CC[C@]3(C)[C@H](CC[C@@H]4[C@@]5(C)CC[C@H](O)C(C)(C)[C@@H]5CC[C@]43C)[C@@H]12	4.18	inactive	inactive	inactive	8.2	inactive	130.89 µM	536 µM	3	130.89 µM	inactive	inactive	–	–	–
NC(=O)c1ncn([C@@H]2O[C@H](CO)[C@@H](O)[C@H]2O)n1 [RIBAVIRIN]	–	inactive	–	–	–	inactive	409.84 µM	7610 µM	–	–	–	inactive	74.3	3.99	–
C#CCNC(=O)c1ccccc1C(=O)OC[C@]12CC[C@@H](C(=C)C)[C@@H]1[C@H]1CC[C@@H]3[C@@]4(C)CC[C@H](O)C(C)(C)[C@@H]4CC[C@@]3(C)[C@]1(C)CC2	4.70	inactive	inactive	inactive	8	inactive	39.81 µM	159 µM	11	159.24 µM	inactive	inactive	–	–	–
C=C(C)[C@@H]1CC[C@]2(COC(=O)/C=C(\C)C(=O)N3CCOCC3)CC[C@]3(C)[C@H](CC[C@@H]4[C@@]5(C)CC[C@H](O)C(C)(C)[C@@H]5CC[C@]43C)[C@@H]12	–	inactive	inactive	inactive	–	inactive	37.82 µM	114 µM	–	37.82 µM	inactive	inactive	3	4.42	3
C=C(C)[C@@H]1CC[C@]2(COC(=O)CCCCCCCCCC(=O)O)CC[C@]3(C)[C@H](CC[C@@H]4[C@@]5(C)CC[C@H](O)C(C)(C)[C@@H]5CC[C@]43C)[C@@H]12	–	inactive	inactive	inactive	–	inactive	5.09 µM	29.4 µM	–	10.2 µM	inactive	inactive	2.9	4.99	10
